ChEMBL document CHEMBL4828759, “Targeted methylation facilitates DNA double strand breaks and enhances cancer suppression: A DNA intercalating/methylating dual-action chimera Amonafidazene” (Eur J Med Chem, 2021)
The source made the active and inactive calls. The calls are words filed in the database; no cut-off is given here.

Key:
MDA-MB-238 [1] = experiment: Cytotoxicity against human […] cells assessed as cell viability measured after 96 hrs by XTT assay; format: functional, cell-based
NCI-H1299 = experiment: Cytotoxicity against human NCI-H1299 cells assessed as cell viability measured after 96 hrs by XTT assay; format: functional, cell-based; conditions: NCI-H1299, 96 h
MDA-MB-238 [2] = experiment: Antitumour activity against human […] cells xenografted in athymic nude-Foxn 1nu mouse assessed as inhibition of tumour growth at 1.9 mg/kg, ip measured after 5 weeks; format: functional, organism-based
MDA-MB-238 [3] = experiment: Inhibition of DNA Topoisomerase-2 in human […] cells assessed as generation of DNA double strand breaks by measuring gamma-H2AX at 2 uM incubated for 24 hrs followed by drug washout and measured after 24 hrs by immunofluorescence assay; format: cell-based
MDA-MB-238 [4] = experiment: Inhibition of DNA Topoisomerase-2 in human […] cells assessed as generation of DNA double strand breaks measuring gamma-H2AX at 2 uM incubated for 24 hrs followed by drug washout and measured after 96 hrs by immunofluorescence assay; format: cell-based
A 172 = experiment: Cytotoxicity against human A 172 cells assessed as cell viability measured after 96 hrs by XTT assay; format: functional, cell-based; conditions: A 172, 96 h
WM 266-4 = experiment: Cytotoxicity against human WM 266-4 cells assessed as cell viability measured after 96 hrs by XTT assay; format: functional, cell-based; conditions: WM 266-4, 96 h
DNA [5] = experiment: Induction of DNA methylation in human HCT-116 cells assessed as reduction of MGMT expression at 400 uM measured after 48 hrs by Western blot assay relative to control; format: functional, cell-based; set-up: scale not given: the % may be the effect or the level left
DNA [6] = experiment: Induction of DNA methylation in human HCT-116 cells assessed as reduction of MGMT expression at 200 uM measured after 48 hrs by Western blot assay relative to control; format: functional, cell-based; set-up: scale not given: the % may be the effect or the level left
MDA-MB-238 [7] = experiment: Inhibition of DNA Topoisomerase-2 in human […] cells assessed as generation of DNA double strand breaks measuring gamma-H2AX at incubated for 24 hrs followed by drug washout and measured after 24 to 96 hrs by immunofluorescence assay; format: cell-based
[8] = Drug metabolism in human MDA-MB-231 cells xenografted in athymic Balb/c mouse assessed as increase of free amonafide in tumor at 10 mg/kg, ip measured after 120 hrs by fluorescence based microscopic assay; format: ADME, organism-based; conditions: in vivo
MDA-MB-238 [9] = experiment: Antitumour activity against human […] cells xenografted in athymic nude-Foxn 1nu mouse assessed as inhibition of tumour growth at 3.8 mg/kg, ip measured after 5 weeks; format: functional, organism-based
[10] = Drug metabolism in human MDA-MB-231 cells assessed as increase of free amonafide in cell at 25 uM measured after 2 hrs by fluorescence based microscopic assay; format: ADME; conditions: mda-mb-231, 2 h

Drug metabolism [8]	Drug metabolism [10]	Structure (SMILES)	IC50 (MDA-MB-238 [1]) [µM]	IC50 (NCI-H1299) [µM]	Activity (MDA-MB-238 [2])	inhibition (MDA-MB-238 [3])	inhibition (MDA-MB-238 [4])	IC50 (A 172) [µM]	IC50 (WM 266-4) [µM]	Activity (DNA [5]) [%]	Activity (DNA [6]) [%]	inhibition (MDA-MB-238 [7])	Activity (MDA-MB-238 [9])
–	–	CN(C)CCN1C(=O)c2cccc3cc(N)cc(c23)C1=O [AMONAFIDE]	24.2	8.84	Active	Active	Active	23.8	6.92	–	–	–	–
–	–	COC(=O)N(C)/N=N/c1ccc(CO)cc1	> 100	> 100	–	–	–	> 40	> 100	48	75	–	–
–	–	Cn1nnc2c(C(N)=O)ncn2c1=O [TEMOZOLOMIDE]	> 100	> 100	–	–	–	> 40	> 100	57	93	inactive	–
Metabolite_Detected	Metabolite_Detected	COC(=O)N(C)/N=N/c1ccc(COC(=O)Nc2cc3c4c(cccc4c2)C(=O)N(CCN(C)C)C3=O)cc1	3.02	1.79	Active	Active	Active	2.73	3.79	–	–	–	Active
–	–	COC(=O)N(C)/N=N/c1ccc(COC(=O)Nc2ccc3c4c(cccc24)C(=O)N(CCN(C)C)C3=O)cc1	6.26	3.61	–	–	–	7.46	4.86	–	–	–	–
